Here are results for three molecules from PMC7168933, “Design, Synthesis and Biochemical Evaluation of Novel Ethanoanthracenes and Related Compounds to Target Burkitt’s Lymphoma” (Pharmaceuticals, 2020).

Broadly, the IC50 is the concentration needed to halve the response being measured.

Molecules are shown by their SMILES.

Data set [1] concerns MUTU-1 Burkitt's lymphoma cell line. Put plainly: FITC Annexin V/PI FACS analysis of apoptosis in MUTU-I cells. The class given is cell-based. Conditions: 24 h. As to the method: (§1) BL cells DG-75 and MUTU-1 (750,000) were treated with the specified concentration of the selected compound and incubated for 24 h (MUTU-1) or 48 h (DG-75) with taxol as the positive control. Samples were harvested by centrifugation and the pellets were rinsed with 0.5 mL of Ca^2+ Annexin V binding buffer (0.1 M HEPES, pH 7.4; 1.4 M NaCl; 25 mM CaCl2) each and pelleted again by centrifugation. Supernatants were decanted and the pellets were suspended again in 50 µL FITC Annexin V (diluted 1:33 in Ca^2+ Annexin V binding buffer), the samples were then placed on ice and incubated for 10 min in the dark. After the incubation period 0.5 mL of Ca^2+ Annexin V binding buffer was added and samples were pelleted by centrifugation. The supernatant was decanted and the pellet was suspended in PI solution (500 µL; 0.5 µg/mL). After 1 h, the samples were recorded using a CyAn ADP flow cytometer (Beckman Coulter Inc., Brea, CA, USA). 10,000 cells were analysed with the Flowjo software package. Taxol was used as a positive control for cell death.
(A flow cytometer gives signals particle by particle.)

Data set [2] deals with DG-75 Burkitt's lymphoma cell line. Kind of data set: FITC Annexin V/PI FACS analysis of apoptosis in DG-75 cells. The class given is cell-based. Particulars: 48 h. As to the method:
as §1

A short description of data set [3]: Viability of peripheral blood mononuclear cells (alamarBlue). Particulars: human, peripheral blood mononuclear cells (PBMCs); for viability at 24 h, 0.5 µM: read-out: viable PBMCs at 0.5 µM; for viability at 24 h, 1 µM: read-out: viable PBMCs at 1 µM. It counts as cell-based. As to the method: BL cells were seeded in a 96-well plate (1–5 × 10^4 cells per 200 µL in well). Cells were treated with the desired drug concentration for a predetermined time frame and incubated as required. alamarBlue (20 µL) was added to each well and the cells were incubated at 37 °C in the dark for 4 h. Plates were then recorded on a fluorescence plate reader (SpectraMax Gemini, Molecular Devices) at 544 nm (excitement) and 590 nm (emission). Experiments were performed in triplicate using controls of reagent, medium and vehicle (100% viability). Taxol (10 μM) was used as the control drug (90% cytotoxicity) for both cell lines. The experiments were performed in triplicate and the mean value for three independent experiments was calculated.
Blood was obtained from healthy donors (n = 2) after informed consent was received. The blood was then placed into a 50 mL falcon tube and diluted with phosphate-buffered saline (PBS), 1:2. The blood was separated into red blood cells, white blood cell ring and serum using LymphoPrep. The blood was slowly added to Ficoll pague plus (20 mL). The tubes containing the blood were then centrifuged for 30 min at 1700 g. Following transfer of the white blood cell ring to a new 50 mL tube, the volume was adjusted to 50 mL. The samples were again centrifuged for 10 min at 1700 g. The, supernatant liquid was removed; and this step was repeated. The resultant pellet was then resuspended in 10 mL of complete Iscove’s Modified Dulbecco’s (IMDM) media (10% FBS, 0.1% Ciprofloxacin (10 mg/mL)) for use in the cell viability experiments.
On the technique in general: Alamar Blue is a resazurin reagent that responds to reducing activity.

For data set [4], the system named is DG-75 cells. Put plainly: Effect of NAC antioxidant pre-treatment on viability of DG-75 cells (alamarBlue). It counts as cell-based. Particulars: Homo sapiens, 1 µM compound, 48 h, no NAC, read-out: viable DG-75 cells without NAC. As to the method:
Cell proliferation of DG-75 cells was determined with an alamarBlue assay (seeding density 2 × 10^4 cells/mL per well for 96-well plates), with vehicle control ethanol 1% (v/v). Cells were retained for 24 h and then pre-treated with NAC (5 mM) for 1 h, followed by compounds 15, 16b and 16c at 1 μM for 48 h. Cell viability was measured by alamarBlue assay (mean of three independent experiments).
N-Acetylcysteine (Sigma) was dissolved in sterile water (100 mM). Fresh solutions were prepared for each experiment. A 96 well plate was seeded with 2 × 10^4 cells/well for DG-75 cells. After 23 h, the DG-75 cells were then pre-treated with NAC (5 mM) for 1 h before compound treatment. The wells were then treated with the desired drug concentration (1 µM) for a predetermined time frame (48 h). After treatment and incubation, each well was treated with 20 µL of alamarBlue (37 °C) and the plate was incubated in the dark at 37 °C for 4–6 h. Fluorescence of the 96 well plates was then recorded at 590 nm (excitation 544 nm), as described for ‘alamarBlue viability assay’ (above). The percentage of viable cells remaining with NAC pre-treatment was compared to the percentage of viable cells remaining without NAC pre-treatment in order to determine the implication of ROS in the mechanism of cell death induced.

The test system of data set [5] is MUTU-1 Burkitt lymphoma cell line (EBV+). Conditions: 1 μM, 24 h.
For data set [6], the system named is DG-75 Burkitt lymphoma cell line (EBV−, chemoresistant). Particulars: 1 μM, 48 h.
The subject of data set [7] is MUTU-1 Burkitt lymphoma cell line (EBV+). Put plainly: cells. Conditions: Mutu-1, 24 h; for IC50: read-out: IC50 MUTU-I 24 h; for viability at 1 µM: read-out: MUTU-1 Cell Viability % 1 μM, 1 μM, 24 h; for viability at 10 µM: read-out: MUTU-1 Cell Viability % 10 μM, 10 μM, 24 h.
For data set [8], the system named is DG-75 Burkitt lymphoma cell line (EBV−, chemoresistant). Kind of data set: cells. Conditions: Homo sapiens, DG-75, 48 h; for viability at 1 µM: read-out: DG-75 Cell Viability % 1 μM, 1 μM, 48 h; for viability at 10 µM: read-out: DG-75 Cell Viability % 10 μM, 10 μM, 48 h; for IC50: read-out: IC50 DG-75 48 h.
In data set [9] the test system is MUTU-I cell line. Put plainly: Lactate dehydrogenase (LDH) release cytotoxicity assay in MUTU-I cells. It counts as cell-based. Particulars: percentage of total LDH release. As to the method:
(§2) The CytoTox 96 non-radioactive cytotoxicity assay (Promega Corporation; 2800 Woods Hollow Road, Madison, WI, USA) was used to determine the cyctotoxicity of selected compounds. BL cells were incubated for 24 hr and then treated with the selected compounds (at 10 μM concentration) 15, 16b and 16c as in the cell viability assay. After 24 or 48 h as appropriate, the lysis solution (10X), (20 μL) was added. The cells were incubated for a further 1 h to ensure complete death. The supernatant (50 μL) was removed and transferred to a new 96-well plate. “Substrate mix″ (50 μL) was added and the plate was retained in the dark at RT for 30 min. “Stop solution″ (50 μL) was added to each well and the absorbance was recorded at 490 nm with a Dynatech MR5000 plate reader and the cell death was calculated.
In general terms: LDH leaks from cells whose membrane has failed.

Data set [10] concerns DG-75 cell line. Put plainly: Lactate dehydrogenase (LDH) release cytotoxicity assay in DG-75 cells. The class given is cell-based. Conditions: percentage of total LDH release. As to the method: as §2

In the case of `O=C1C2C3c4ccccc4C(/C=C/[N+](=O)[O-])(c4ccccc43)C2C(=O)N1CCCCCCN1C(=O)C2C3c4ccccc4C(/C=C/[N+](=O)[O-])(c4ccccc43)C2C1=O` (stereo not drawn) [Compound 15, 13,13′-(Hexane-1,6-diyl)bis(9-((E)-2-nitrovinyl)-9,10-dihydro-9,10[3,4]epipyrroloanthracene-12,14-dione)], the “apoptosis in MUTU-I at 0.2 µM” value in [1] (0.2 µM) is recorded as above 90%. In addition, in [2] (10 µM), the “apoptosis in DG-75 at 10 µM” value was 95%. Besides, in data set [3], the viability at 24 h, 0.5 µM is around 99% and the viability at 24 h, 1 µM lay within 72 to 81%. Moreover, the viability at 1 µM in [4] is 6 to 23%. Further, in data set [5], the “MUTU-1 Cell Viability % 1 μM” value was 4.5%. Also, in data set [6], the “DG-75 Cell Viability % 1 μM” value was 3.8%. For the same molecule, in data set [7], the IC50 was found to be 90 nM, the viability at 1 µM was below 5% and the viability at 10 µM is 2.1%. Moreover, in data set [8], the viability at 1 µM was below 5%, the viability at 10 µM was 0% and the IC50 stood at 240 nM.
On to `O=C1C2C3c4ccccc4C(C=C[N+](=O)[O-])(c4ccccc43)C2C(=O)N1c1ccc(Cl)cc1` (stereo not drawn) [Compound 16b, (E)-13-(4-Chlorophenyl)-9-(2-nitrovinyl)-9,10-dihydro-9,10-[3,4]epipyrroloanthracene-12,14-dione], for which the “apoptosis in MUTU-I at all concentrations” value in data set [1] (all concentrations (0.2–10 µM)) is “over 80%”. Besides, the “apoptosis in DG-75 at 1 µM” value in [2] is 61%. Moreover, in data set [9] (1 µM), the “LDH release (cytotoxicity) in MUTU-I at 1 µM” value was 5%. In data set [9] (10 µM), the “LDH release (cytotoxicity) in MUTU-I at 10 µM” value was found to be 2%. Further, in data set [3], the viability at 24 h, 0.5 µM is around 99% and the viability at 24 h, 1 µM was 72 to 81%. For the same molecule, the viability at 1 µM in data set [4] lay within 6 to 23%. Further, the “DG-75 Cell Viability % 1 μM” value in data set [6] is 5.5%. In data set [7], the IC50 is 170 nM, the viability at 1 µM was found to be 5% and the viability at 10 µM was 0.38%. For the same molecule, in data set [8], the viability at 1 µM was below 6%, the viability at 10 µM was 0.52% and the IC50 is 450 nM.
On to `COc1ccc(N2C(=O)C3C4c5ccccc5C(/C=C/[N+](=O)[O-])(c5ccccc54)C3C2=O)cc1` (stereo not drawn) [Compound 16c, (E)-13-(4-Methoxyphenyl)-9-(2-nitrovinyl)-9,10-dihydro-9,10-[3,4]epipyrroloanthracene-12,14-dione], for which the “apoptosis in MUTU-I at 0.5 µM” value in data set [1] (0.5 µM) is recorded as above 90%. The “apoptosis in DG-75 at 1 µM” value in data set [2] amounted to 29%. The “LDH release (cytotoxicity) in DG-75 at 10 µM” value in data set [10] is on record as 25%. Further, in data set [3], the viability at 24 h, 0.5 µM is around 99% and the viability at 24 h, 1 µM fell in the range of 72 to 81%. Further, in data set [4], the viability at 1 µM fell in the range of 6 to 23%. In addition, in data set [7], the IC50 stood at 200 nM, the viability at 1 µM worked out at 0.19% and the viability at 10 µM turned out to be 1.1%. Besides, in data set [8], the viability at 1 µM came to 28.4%, the viability at 10 µM worked out at 2.1% and the IC50 was 560 nM.
